Entries after “also recorded” stand apart in the source; their conditions may differ.
Columns and labels:
Mur46 = details: 0.1 mM compound concentration
Procedure: MurTRX, Mur 16 and Mur46 Protein Purification - Proteins were loaded onto IMAC resin (ThermoFisher Scientific HisPur) and eluted in 200 mM imidazole, purified by gel filtration FPLC (HiLoad superdex-200, 26/60; GE Life sciences) and concentrated using 3 kDa cut off Vivaspin 20 PES centrifugal concentrators (Sartorius AG). Proteins were biotinylated using a 1:0.5 molar ratio of EZ-link™ Sulfo-NHS-LC-LC-Biotin (ThermoFisher Scientific) and thoroughly dialysed against PBS prior to Biacore coupling.
A customized biotin capture chip using NeutrAvidin as the capture ligand was created for this assay. To obtain high enough ligand density on the sensor chip surface, NeutrAvidin (Thermoscientific Pierce, Waltham, MA USA) was immobilised on all four sensor chip surfaces to a level of approximately 20,000 RU.
Capture of the Mur ligands to NeutrAvidin - Biotinylated proteins were diluted in HBS EP+ running buffer and captured on the sensor chip surface. Mur46 was coupled to the sensor chip first. After saturating FC3 with Mur46, target response levels for Mur16 and MurTRX were calculated based on their respective molecular weights. […]
Analog Screening-Methods - Analog or derivative compounds from the secondary screen were determined and were used in an analog Biacore SPR screen. […]

[1] = tested on: STHdh 111/111 striatal cells; test: Cell viability (CellTiter Glo) of heat shocked STHdh 111/111 striatal cells; assay type: cell-based, mouse; details: Mus musculus, STHdh 111/111; 10 µM; 48 hours treatment; read-out: Cell Viability striatal cells 3h heat shocked
Procedure: Cell culture - ST HDH Q111/111 (CH00095, Coriell Institute) striatal derived cell line were grown at 33° C. in DMEM (Sigma-Aldrich), supplemented with 10% fetal bovine serum (FBS), 1% Penicillin-Streptomycin (ThermoFisher Scientific), and 0.4 mg/ml G418 (Geneticin; Invitrogen). ST HDH Q111/111 are mouse striatal cells with polyQ length of 1111.
(§1) Pre-Treatment of striatal cell line - First the medium was removed and new DMEM (DMEM, high glucose, HEPES, no phenol red) medium, supplemented with 10% fetal bovine serum (FBS), 1% Penicillin-Streptomycin, containing 10 µM compound was added. The cells were incubated at 33° C. for 24 hours.
(§2) Heat shock - Cells were heat shocked for 3 hours at 41° C.
(§3) Treatment - Medium was removed and new DMEM (DMEM, high glucose, HEPES, no phenol red) medium, supplemented with 1% fetal bovine serum (FBS), 1% Penicillin-Streptomycin, containing 10 µM compound was added. The cells were incubated at 33° C. for 48 hours.
Cell Viability - Cell viability was measured according to manufacturer recommendations with CellTiter Glo (Promega). 96-well plates for used either for cell viability determination or cell staining.

mHTT [2] = target: T1, mHTT (Mus musculus, UniProt P42859, DEL28-30/G47A/INS49LLPQPQPP/INS60VA/L56P/P40L); test: mHTT reduction in STHdh 111/111 cells exposed to autophagy inhibitor NH4Cl or UPS inhibitor MG132; assay type: cell-based; parameters: host or cells: ST HDH Q111/111 mouse striatal derived cell line; details: striatal cells exposed to MG132
T1 sequence (P42859 with tags, fused parts or gaps DEL28-30/P40L/G47A/INS49LLPQPQPP/L56P/INS60VA): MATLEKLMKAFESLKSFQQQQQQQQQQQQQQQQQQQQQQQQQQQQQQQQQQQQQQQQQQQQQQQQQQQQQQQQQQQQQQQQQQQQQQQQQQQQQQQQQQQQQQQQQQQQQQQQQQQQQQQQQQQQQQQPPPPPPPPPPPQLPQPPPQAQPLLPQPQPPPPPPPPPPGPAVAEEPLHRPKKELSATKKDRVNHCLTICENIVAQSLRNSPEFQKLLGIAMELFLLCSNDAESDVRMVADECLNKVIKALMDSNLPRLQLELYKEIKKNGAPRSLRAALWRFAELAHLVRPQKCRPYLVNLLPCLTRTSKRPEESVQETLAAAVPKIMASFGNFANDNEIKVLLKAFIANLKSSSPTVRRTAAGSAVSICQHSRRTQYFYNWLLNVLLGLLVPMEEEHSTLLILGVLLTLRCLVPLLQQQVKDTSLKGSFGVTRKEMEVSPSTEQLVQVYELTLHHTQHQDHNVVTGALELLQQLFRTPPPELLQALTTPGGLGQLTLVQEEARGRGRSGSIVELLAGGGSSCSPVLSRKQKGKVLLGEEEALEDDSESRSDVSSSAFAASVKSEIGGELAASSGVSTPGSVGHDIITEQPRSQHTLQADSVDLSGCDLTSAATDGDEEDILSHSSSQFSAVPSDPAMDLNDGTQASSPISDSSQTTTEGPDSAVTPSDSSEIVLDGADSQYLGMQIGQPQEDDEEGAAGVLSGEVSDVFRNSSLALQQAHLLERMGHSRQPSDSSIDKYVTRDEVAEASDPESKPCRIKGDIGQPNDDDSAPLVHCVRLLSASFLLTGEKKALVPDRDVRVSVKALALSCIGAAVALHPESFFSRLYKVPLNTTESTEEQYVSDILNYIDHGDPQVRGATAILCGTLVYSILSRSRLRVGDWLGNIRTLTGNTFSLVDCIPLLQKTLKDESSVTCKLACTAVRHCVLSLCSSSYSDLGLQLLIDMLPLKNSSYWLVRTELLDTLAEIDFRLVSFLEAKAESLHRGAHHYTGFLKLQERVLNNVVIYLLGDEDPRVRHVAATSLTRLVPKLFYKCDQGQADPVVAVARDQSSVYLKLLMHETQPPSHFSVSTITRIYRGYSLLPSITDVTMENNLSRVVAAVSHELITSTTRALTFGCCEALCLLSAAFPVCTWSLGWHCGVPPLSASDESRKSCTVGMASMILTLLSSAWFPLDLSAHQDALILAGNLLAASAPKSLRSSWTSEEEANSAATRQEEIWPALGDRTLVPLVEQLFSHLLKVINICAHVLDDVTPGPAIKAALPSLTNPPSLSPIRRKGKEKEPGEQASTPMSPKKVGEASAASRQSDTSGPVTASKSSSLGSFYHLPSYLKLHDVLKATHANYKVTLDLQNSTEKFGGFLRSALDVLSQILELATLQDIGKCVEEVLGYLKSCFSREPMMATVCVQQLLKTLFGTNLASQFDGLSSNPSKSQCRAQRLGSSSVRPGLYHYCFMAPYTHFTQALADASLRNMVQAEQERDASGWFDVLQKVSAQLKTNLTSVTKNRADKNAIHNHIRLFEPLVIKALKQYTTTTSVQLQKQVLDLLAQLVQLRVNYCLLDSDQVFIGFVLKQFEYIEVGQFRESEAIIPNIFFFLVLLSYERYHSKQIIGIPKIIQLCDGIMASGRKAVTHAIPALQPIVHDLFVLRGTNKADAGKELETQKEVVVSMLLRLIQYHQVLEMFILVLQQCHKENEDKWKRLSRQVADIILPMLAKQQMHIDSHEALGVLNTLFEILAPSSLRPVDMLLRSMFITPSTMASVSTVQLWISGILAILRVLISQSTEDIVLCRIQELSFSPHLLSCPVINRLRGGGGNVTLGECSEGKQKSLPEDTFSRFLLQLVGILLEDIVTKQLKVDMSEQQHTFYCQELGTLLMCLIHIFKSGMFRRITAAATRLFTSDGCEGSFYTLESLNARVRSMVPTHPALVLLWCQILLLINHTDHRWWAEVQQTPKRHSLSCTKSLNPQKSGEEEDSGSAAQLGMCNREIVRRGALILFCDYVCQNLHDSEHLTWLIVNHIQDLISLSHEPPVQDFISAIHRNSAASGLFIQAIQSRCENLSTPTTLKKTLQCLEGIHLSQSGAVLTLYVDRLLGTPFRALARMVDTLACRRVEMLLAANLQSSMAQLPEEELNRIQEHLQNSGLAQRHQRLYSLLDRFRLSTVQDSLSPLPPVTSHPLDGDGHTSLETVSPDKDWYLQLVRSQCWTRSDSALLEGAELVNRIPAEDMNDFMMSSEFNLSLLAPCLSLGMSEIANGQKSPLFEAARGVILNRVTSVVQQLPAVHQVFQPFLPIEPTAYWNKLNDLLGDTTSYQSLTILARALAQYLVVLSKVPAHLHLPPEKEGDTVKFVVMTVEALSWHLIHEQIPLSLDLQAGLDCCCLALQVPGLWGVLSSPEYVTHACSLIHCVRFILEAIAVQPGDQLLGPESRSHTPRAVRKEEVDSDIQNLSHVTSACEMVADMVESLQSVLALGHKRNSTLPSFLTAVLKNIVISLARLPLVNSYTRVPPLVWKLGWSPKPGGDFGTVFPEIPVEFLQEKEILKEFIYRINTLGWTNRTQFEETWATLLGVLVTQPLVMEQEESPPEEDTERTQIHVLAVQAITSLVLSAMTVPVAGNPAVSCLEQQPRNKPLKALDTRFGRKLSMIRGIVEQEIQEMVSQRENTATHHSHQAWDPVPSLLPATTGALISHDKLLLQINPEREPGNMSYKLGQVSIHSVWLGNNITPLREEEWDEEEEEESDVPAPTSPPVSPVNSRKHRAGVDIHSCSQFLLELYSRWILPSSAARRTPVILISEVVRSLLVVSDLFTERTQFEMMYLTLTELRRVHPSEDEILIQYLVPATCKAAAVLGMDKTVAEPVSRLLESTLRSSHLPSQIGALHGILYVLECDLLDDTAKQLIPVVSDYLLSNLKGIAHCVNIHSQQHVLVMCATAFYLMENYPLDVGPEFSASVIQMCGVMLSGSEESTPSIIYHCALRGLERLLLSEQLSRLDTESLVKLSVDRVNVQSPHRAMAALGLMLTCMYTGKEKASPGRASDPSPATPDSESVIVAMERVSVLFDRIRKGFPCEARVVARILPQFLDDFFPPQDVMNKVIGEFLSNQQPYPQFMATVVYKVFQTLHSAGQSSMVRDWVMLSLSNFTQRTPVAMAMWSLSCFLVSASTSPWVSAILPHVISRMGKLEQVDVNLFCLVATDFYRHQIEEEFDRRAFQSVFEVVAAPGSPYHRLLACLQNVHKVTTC
Procedure: Invitrogen). […] Staining - Cells were permeabilized with 0.3% Triton X-100 in 4° C. PBS (pH 7.4 from ThermoFisher) for 10 minutes. Then the cells were washed two times with 4° C. PBS. Subsequently, cells are blocked with 3% NGS (normal goat serum from Thermo Fisher) in 4° C. PBS for 1 hour. […] Primary antibodies were mouse antipolyglutamine monoclonal antibody 3B5H10 (Sigma-Aldrich) at 1:250 dilution and Guinea Pig anti-MAP2 polyclonal antibody (Synaptic Systems) at 1:500 dilution. For LC3 staining primary antibodies were mouse anti-LC3 mab (5F10) (nanoTools) at 1:500 dilution and Guinea Pig anti-MAP2 polyclonal antibody (Synaptic Systems) at 1:500 dilution. Cells were washed 2 times with 4° C. PBS, and then incubated with secondary antibodies at 1:2000 dilution in blocking buffer for 1 hour at room temperature. […] Fluorescence Imaging - Imaging sessions were performed on a confocal microscope system (Carl Zeiss Microscopy) equipped with a dual spinning disk unit (Yokogawa). […] The fluorescence images obtained of the immunofluorescence labelled tissue sections were quantified with the help of the “Image Processing and Analysis in Java” or short ImageJ software distributed under the GNU General Public License by the NIH (Rueden, C.T. et al., BMC Bioinformatics. 2017 Nov 29;18(1):529), i.e. the edition used was the Fiji distribution (Schindelin, J. et al., Nature methods. 2012 Jun 28;9(7):676-82). […]

Exon1 Q46 = test: Circular dichroism of Exon1 Q46, predominantly α-helical state; assay type: biochemical; details: Exon1 Q46; conc. compound 1.62 µM
Procedure: Protein samples were diluted with buffer to 7.5 µM prior to Circular Dichroism (CD) measurements. Measurements were conducted at room temperature.
Four spectra at each measurement were taken every 1 nm from 200 to 260 nm, scanning at 50 nm/min with an averaging time of 1 sec. Spectra were obtained from samples in 20 mM phosphate, pH 7.4. Ten scans were averaged for each sample spectrum
Single-wavelength readings at 222 nm were obtained. After subtraction of the Trx contribution, the α-helical content of Httex1 was estimated from its mean residue ellipticity (MREHttex1) at 222 nm. This calculation was conducted as described by Bravo-Arredondo (Bravo-Arredondo, J.M. et al., J Biol Chem. 2018 Dec 21;293(51):19613-19623).
MRE Exon-1 […] and Q46 (Mean Residue Ellipticity) was measured every 1 sec for 300 sec; the 301 readings for each sample were averaged and MRE Trx subtracted. The number of amino acids in each sample to experience a change in helicity was estimated using a previously developed helix-coil transition model, which gave the change in fraction of helicity (ΔfHelix) by the following equation: […]
where MRE Exon1 Q26 or Q46 (MREHttex1 in the formula) describes the helix-coil transition, obtained from the difference between MRE Eon1 Q26 or Q46 at 222 nm of the fusion protein at the given temperature (in our case 37° C.) and the product of MRE Trx at 222 nm at the same temperature and the fraction of residues comprised by Trx in that particular construct, and
In order to calculate an equilibrium of the two states model, percent α-helicity was calculated using the relation of MREHttex1 = 0 and -34700 (deg cm^2 dmol^-1) for 0% and 100% helicity, respectively.
The CD measurements protocol for Compound 101 was the same as outlined above except that from 206 nm - 210 nm and 220 nm - 224 nm, the step size was 0.2 nm, and the bandwidth was 1 nm.

[3] = Modified PAMPA with brain lipids, blood brain barrier permeation by LC-MS-MS; assay type: in vitro ADME
Procedure: Compounds from the Biacore screening were analyzed in a modified Parallel Artificial Permeation Assay (PAMPA) assay for their ability to permeate the blood brain barrier. The filter material of a 96-well microplate is impregnated with brain lipids (Di, L. et al., Eur. J. Med. Chem. 2003 Mar;38(3):223-232). The test compounds were added to the donor compartment. […] Based on these permeation data, the drugs were classified as blood brain barrier permeating (BBB+) with a flux rate >50% or non-permeating (BBB-) with a flux rate <50%.

[4] = tested on: Htt14A2.6 PC12 cells (mHttex1-GFP); test: mHTT aggregation by filter retardation assay in Htt14A2.6 PC12 cells; assay type: cell-based; details: 24 hour treatment, different concentrations
Procedure: Compounds from the Biacore screening were selected for measurement of aggregation in a cell model Htt14A2.6 PC12. Htt14A2.6 PC12 cells express a GFP- tagged 97Q mHtt exon 1 fusion protein (mHttex1-GFP) in the presence of ponasterone A. Htt14A2.6 PC12 cells were grown in medium containing 5 µM ponasterone A for 20 hours prior to treatment with the compounds. Htt14A2.6 PC12 cells were plated at 50~60% confluency. Compound 22 was tested at a final concentration of 80 nM, 400 nM and 10 µM in cell culture medium for 24 hours. Htt14A2.6 PC12 cells were harvested, rinsed, homogenized in cold phosphate-buffered saline containing protease inhibitor cocktail, and centrifuged at 16000 g for 30 min at 4° C. twice. About 25 µg total protein of each sample was resolved in 8% SDS PAGE, transferred onto PVDF membrane, blotted with an anti-GFP antibody, and visualized by ECL detection. mHTT aggregates were quantified from the cell lysates by filter retardation assay (Wanker, E.E., et al., Methods Enzymol (1999); 309: 375-386).

mHTT [5] = target: T1, mHTT; test: Diffuse mHTT levels in heat shocked STHdh 111/111 striatal cells by immunocytochemistry; details: 48 h, read-out: mHTT after treatment
Procedure: as §1, §2, §3
Staining - Cells were permeabilized with 0.3% Triton X-100 in 4° C. PBS (pH 7.4 from ThermoFisher) for 10 minutes. Then the cells were washed two times with 4° C. PBS. Subsequently, cells are blocked with 3% NGS (normal goat serum from Thermo Fisher) in 4° C. PBS for 1 hour. Cells were incubated with primary antibodies in blocking buffer (PBS, 3% NGS, 0.02% NaN3) over night at 4° C. Primary antibodies were mouse antipolyglutamine monoclonal antibody 3B5H10 (Sigma-Aldrich) at 1:250 dilution and Guinea Pig anti-MAP2 polyclonal antibody (Synaptic Systems) at 1:500 dilution. 3B5H10 binds to diffuse mHTT. Diffuse mHTT is a monomeric and small oligomeric mHTT.
Cells were washed 2 times with 4° C. PBS, and then incubated with secondary antibodies at 1:2000 dilution in blocking buffer for 1 hour at room temperature. […] Cells were washed 2 times with 4° C. PBS, and then the nuclei were counterstain with DAPI (ThermoFisher) for 10 min at room temperature in the dark. Cells were washed 2 times with 4° C. PBS, and then 4° C. PBS was added to cells and then images were acquired.
Fluorescence Imaging - Imaging sessions were performed on a confocal microscope system (Carl Zeiss Microscopy) equipped with a dual spinning disk unit (Yokogawa). All components of the imaging system were controlled via the ZEN 2 software suite (Carl Zeiss Microscopy). The laser lines used were 405 nm, 488 nm and 639 nm to excite DAPI or the respective fluorophores. […] Nested t test was performed to calculate the significance amongst repeated measurements using GraphPad Prism software.
ST HDH Q7/7 (CH00097, Coriell Institute) striatal derived cell line from a knock in transgenic mouse containing HTT loci with a humanized Exon 1 containing 7 polyglutamine repeats.
EC 50 value was determined with non-linear regression.

Structure (SMILES): Cc1[nH]c2ccc(C(=O)N(C)CCN(C)C3CC3)cc2c1C [Compound 114]
- Biacore affinity (RU^2) (Mur46): 20 RU^2

Structure (SMILES): O=C(NCCN1CCC1)c1ccc2[nH]c3c(c2c1)CCCC3 [Compound 20]
- viability at 10 µM [1]: 118%
- mHTT reduction with MG132 in comparison to without MG132 (mHTT [2]): less

Structure (SMILES): Cc1[nH]c2ccc(C(=O)NC3CCC(N(C)C)CC3)cc2c1C (centres unmarked) [Compound 101, N-(4-(dimethylamino)cyclohexyl)-2,3-dimethyl-1H-indole-5-carboxamide]
- viability at 10 µM [1]: 110%
- Fraction Helix fH (%) (Exon1 Q46): 19.0%

Structure (SMILES): Cc1[nH]c2ccc(C(=O)NCCN(C)C)cc2c1C [Compound 7]
- Classification [3]: BBB+ (blood brain barrier permeating (BBB+) with a flux rate >50%)
- recovery [3]: 88.5%
- reduction of mHTT aggregation (filter retardation) [4]: A reduction of aggregation of Htt14A2.6 PC12 was not observed; also recorded: did not show a reduction of aggregation
- viability at 10 µM [1]: 96%
- Biacore affinity (RU^2) (Mur46): 122 RU^2
- remaining activity at 10 µM (mHTT [5]): 45%
